Here are results for one compound from paper PMC10541198, “Specific quinone reductase 2 inhibitors reduce metabolic burden and reverse Alzheimer’s disease phenotype in mice” (The Journal of Clinical Investigation, 2023).

Several values for one entry are separate records, joined by “and”; a condition that tells them apart may be missing. Identical values can stand only once.

The subject of this test is 4-HNE. As to the kind of experiment: Immunoblot of 4-HNE 3 hours after CA1 microinjection. The test is classed as in vivo, mouse. The protocol:
In order to evaluate the efficacy of some of the leading QR2is in vivo, we carried out double-blind experiments using 2 different modalities (Supplemental Methods), measuring memory that is dependent on different brain areas. First, cortical memory was tested using incidental novel taste learning (see Methods), in which an unfamiliar, but palatable and safe, taste is given for the first time, and the memory for this newly learned taste is then assessed 2 days later. This is done by measuring the volume of the taste consumed upon subsequent exposure to it ([32]) (Figure 4A). […] Next, hippocampal-dependent learning was evaluated using delay fear conditioning (DFC; see Methods) ([33]). Mice were cannulated to the CA1 region of the hippocampus and were microinjected with YB-537 (1 μL of 5 μM, Figure 4, D and H) or vehicle. […] In order to evaluate any possible effect of acute QR2i microinjection on metabolic stress in the mouse brain, ISR activation was measured by quantifying total and phosphorylated eukaryotic initiation factor 2 α (eIF2α) levels (Supplemental Figure 3A) and lipid peroxidation product, 4-hydroxynonenal (4-HNE; Supplemental Figure 3B), by immunoblot 3 hours after the injection. […]
For orientation: Immunoblotting shows a protein as a band on a membrane.

With `Cc1ccc(-c2cn3cccc(C)c3n2)cc1S(=O)(=O)N1CCNCC1` [YB-537], the 4-HNE levels result (3 hours after microinjection in the mouse hippocampus) is on record as “insignificant reduction”. Further, the “Sup. Fig. 3B, immunoblot signal” value (individual animals) is 1.944 and 1.965 and 2.545 and 1.185 and 0.887 and 2.092 and 2.161.
